From patent US10934282B2, “Heteroaromatic modulators of the retinoid-related orphan receptor gamma” (LEO PHARMA A/S, priority 2016, dated 2021)

Tests used:
[1] = system: IL-17A levels in human peripheral blood; experiment: tissue or blood; format: cell-based; conditions: 72 h, read-out: Human Whole blood IL-17A (nM)
[2] = target: T1, human RORgt nuclear receptor (RORgT ligand binding domain protein) (Homo sapiens, UniProt P51449); experiment: ROR-gamma binding assay (Scintillation Proximity Assay, displacement of [3H]-25-hydroxycholesterol); conditions: EC50, SPA, 15 nM [3H]-25-Hydroxycholesterol, RORgT LBD 12 nM
T1 construct: purchased Proteros Biostructures GmbH
T1 sequence (P51449 with tags, fused parts or gaps): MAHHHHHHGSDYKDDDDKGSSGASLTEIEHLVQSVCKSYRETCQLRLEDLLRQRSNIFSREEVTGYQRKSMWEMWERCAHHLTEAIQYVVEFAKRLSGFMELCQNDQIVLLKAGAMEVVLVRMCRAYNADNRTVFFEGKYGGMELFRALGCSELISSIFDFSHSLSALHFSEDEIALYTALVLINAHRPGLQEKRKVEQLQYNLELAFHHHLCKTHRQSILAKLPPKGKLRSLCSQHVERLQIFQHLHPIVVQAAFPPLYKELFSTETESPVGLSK
How it was run: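 SPA competition of compound against 15 nM [3H]-25-hydroxycholesterol for His/FLAG-tagged human RORγt LBD (12 nM) on His-tag PVT beads, in 50 mM HEPES pH 7.4, 150 mM NaCl, 5 mM MgCl2, 0.1% BSA, 0.5% DMSO. 30 min preincubation, then ≥4 h at room temperature in darkness; EC50 by four-parameter fit.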

[3] = system: IL-17A in Human peripheral mononuclear cells; experiment: Human PBMC IL-17A assay; format: cell-based; conditions: 72 h, EC50, antiCD3/antiCD28-coated beads, 3 days, alpha-LISA
How it was run: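 Cryopreserved human PBMC (130,000/well) stimulated with anti-CD3/anti-CD28-coated beads (1 cell per bead) in RPMI-1640 with 10% bovine calf serum, compounds at 0.1% DMSO, for 3 days. Supernatant IL-17A measured by AlphaLISA, viability by PrestoBlue; EC50 from 4-parameter non-linear regression.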

## CC[C@H](O)c1nnc(Nc2cc(C)cc(CN3CCN(C(=O)OC(C)C)[C@@H](C)C3)c2C)o1 [Example 62, isopropyl (2S)-4-[[3-[[5-[(1S)-1-hydroxypropyl]-1,3,4-oxadiazol-2-yl]amino]-2,5-dimethyl-phenyl]methyl]-2-methyl-piperazine-1-carboxylate]
[1]
  EC50: 103 nM
[2]
  EC50: 20.7 nM
[3]
  EC50: 67.6 nM

## Cc1c(CN2CCN(C(=O)OC(C)C)[C@@H](C)C2)cc(Cl)cc1Nc1nnc([C@H](C)O)o1 [Example 63, isopropyl (2S)-4-[[5-chloro-3-[[5-[(1S)-1-hydroxyethyl]-1,3,4-oxadiazol-2-yl]amino]-2-methyl-phenyl]methyl]-2-methyl-piperazine-1-carboxylate]
[1]
  EC50: 187 nM
[2]
  EC50: 34.8 nM
[3]
  EC50: 62.1 nM

## Cc1c(CN2CCN(C(=O)OC(C)C)[C@@H](C)C2)cc(Cl)cc1Nc1nnc([C@H]2C[C@H](O)C2)o1 [Example 64, isopropyl (2S)-4-[[5-chloro-3-[[5-(3-hydroxycyclobutyl)-1,3,4-oxadiazol-2-yl]amino]-2-methyl-phenyl]methyl]-2-methyl-piperazine-1-carboxylate]
[1]
  EC50: 191 nM
[2]
  EC50: 50.6 nM
[3]
  EC50: 131 nM

## Cc1cc(CN2CCN(C(=O)OC(C)C)[C@@H](C)C2)c(C)c(Nc2nnc([C@@H]3CCCN3S(C)(=O)=O)o2)c1 [Example 65, isopropyl (2S)-4-[[2,5-dimethyl-3-[[5-[(2S)-1-methylsulfonylpyrrolidin-2-yl]-1,3,4-oxadiazol-2-yl]amino]phenyl]methyl]-2-methyl-piperazine-1-carboxylate]
[1]
  EC50: 107 nM
[2]
  EC50: 47.9 nM
[3]
  EC50: 58.7 nM

## Cc1cc(CN2CCN(C(=O)OC(C)C)[C@@H](C)C2)c(C)c(Nc2nnc([C@H](C)O)o2)c1 [Example 66, isopropyl (2S)-4-[[3-[[5-[(1S)-1-hydroxyethyl]-1,3,4-oxadiazol-2-yl]amino]-2,5-dimethyl-phenyl]methyl]-2-methyl-piperazine-1-carboxylate]
[1]
  EC50: 140 nM
[2]
  EC50: 54.8 nM
[3]
  EC50: 77.6 nM

## Cc1c(CN2CCN(C(=O)OC(C)C)[C@@H](C)C2)cc(Cl)cc1Nc1nnc(C2CNC(=O)C2)o1 (stereo partly drawn) [Example 67, isopropyl (2S)-4-[[5-chloro-2-methyl-3-[[5-(5-oxopyrrolidin-3-yl)-1,3,4-oxadiazol-2-yl]amino]phenyl]methyl]-2-methyl-piperazine-1-carboxylate]
[1]
  EC50: 597 nM
[2]
  EC50: 62.2 nM
[3]
  EC50: 47.2 nM

## Cc1cc(CN2CCN(C(=O)OC(C)C)[C@@H](C)C2)c(C)c(Nc2nnc([C@@H](C)N)o2)c1 [Example 68, isopropyl (2S)-4-[[3-[[5-[(1R)-1-aminoethyl]-1,3,4-oxadiazol-2-yl]amino]-2,5-dimethyl-phenyl]methyl]-2-methyl-piperazine-1-carboxylate]
[1]
  EC50: 552 nM
[2]
  EC50: 103 nM
[3]
  EC50: 182 nM

## Cc1cc(CN2CCN(C(=O)OCC(F)(F)F)[C@@H](C)C2)c(C)c(Nc2nnc([C@H]3C[C@@H](O)C3)o2)c1 [Example 70, 2,2,2-trifluoroethyl (2S)-4-[[3-[[5-(3-hydroxycyclobutyl)-1,3,4-oxadiazol-2-yl]amino]-2,5-dimethyl-phenyl]methyl]-2-methyl-piperazine-1-carboxylate]
[1]
  EC50: 227 nM
[2]
  EC50: 52.2 nM
[3]
  EC50: 78.5 nM

## CCOC(=O)N1CCN(Cc2cc(C)cc(Nc3nnc([C@@H](C)O)o3)c2C)C[C@@H]1C [Example 71, ethyl (2S)-4-[[3-[[5-[(1R)-1-hydroxyethyl]-1,3,4-oxadiazol-2-yl]amino]-2,5-dimethyl-phenyl]methyl]-2-methyl-piperazine-1-carboxylate]
[1]
  EC50: 307 nM
[2]
  EC50: 62 nM
[3]
  EC50: 223 nM

## Cc1cc(CN2CCN(C(=O)OC(C)C)[C@@H](C)C2)c(C)c(Nc2nnc([C@@H](O)CO)o2)c1 [Example 72, isopropyl (2S)-4-[[3-[[5-[(1S)-1,2-dihydroxyethyl]-1,3,4-oxadiazol-2-yl]amino]-2,5-dimethyl-phenyl]methyl]-2-methyl-piperazine-1-carboxylate]
[1]
  EC50: 258 nM
[2]
  EC50: 81.6 nM
[3]
  EC50: 262 nM

## Cc1c(CN2CCN(C(=O)OC(C)(C)C)[C@@H](C)C2)cc(Cl)cc1Nc1ncc(CO)o1 [Example 74, tert-butyl (2S)-4-[[5-chloro-3-[[5-(hydroxymethyl)oxazol-2-yl]amino]-2-methyl-phenyl]methyl]-2-methyl-piperazine-1-carboxylate]
[1]
  EC50: 946 nM
[2]
  EC50: 71.8 nM
[3]
  EC50: 408 nM

## Cc1cc(CN2CCN(C(=O)O[C@H](C)C(F)(F)F)[C@@H](C)C2)c(C)c(Nc2nnc([C@@H](O)CO)o2)c1 [Example 75, [(1R)-2,2,2-trifluoro-1-methyl-ethyl] (2S)-4-[[3-[[5-[(1S)-1,2-dihydroxyethyl]-1,3,4-oxadiazol-2-yl]amino]-2,5-dimethyl-phenyl]methyl]-2-methyl-piperazine-1-carboxylate]
[1]
  EC50: 158 nM
[2]
  EC50: 32.4 nM
[3]
  EC50: 52.9 nM

## Cc1cc(CN2CCN(C(=O)OC(C)C)[C@@H](C)C2)c(C)c(Nc2nnc([C@@H]3CCOC3)o2)c1 [Example 76, isopropyl (2S)-4-[[2,5-dimethyl-3-[[5-[(3R)-tetrahydrofuran-3-yl]-1,3,4-oxadiazol-2-yl]amino]phenyl]methyl]-2-methyl-piperazine-1-carboxylate]
[1]
  EC50: 112 nM
[2]
  EC50: 25.6 nM
[3]
  EC50: 60.5 nM

## Cc1cc(CN2CCN(C(=O)OC(C)C)[C@@H](C)C2)c(C)c(Nc2nnc([C@H]3NCC[C@H]3O)o2)c1 [Example 77, isopropyl (2S)-4-[[3-[[5-[(2S,3R)-3-hydroxypyrrolidin-2-yl]-1,3,4-oxadiazol-2-yl]amino]-2,5-dimethyl-phenyl]methyl]-2-methyl-piperazine-1-carboxylate]
[1]
  EC50: 368 nM
[2]
  EC50: 61.2 nM
[3]
  EC50: 180 nM

## Cc1cc(CN2CCN(C(=O)C3CCCC3)[C@@H](C)C2)c(C)c(Nc2nnc([C@H]3NCC[C@H]3O)o2)c1 [Example 78, cyclopentyl-[(2S)-4-[[3-[[5-[(2S,3R)-3-hydroxypyrrolidin-2-yl]-1,3,4-oxadiazol-2-yl]amino]-2,5-dimethyl-phenyl]methyl]-2-methyl-piperazin-1-yl]methanone]
[1]
  EC50: 157 nM
[2]
  EC50: 72.5 nM
[3]
  EC50: 95.9 nM

## Cc1cc(CN2CCN(C(=O)C3CCC(F)(F)C3)[C@@H](C)C2)c(C)c(Nc2nnc([C@H]3NCC[C@H]3O)o2)c1 (stereo partly drawn) [Example 79, (3,3-difluorocyclopentyl)-[(2S)-4-[[3-[[5-[(2S,3R)-3-hydroxypyrrolidin-2-yl]-1,3,4-oxadiazol-2-yl]amino]-2,5-dimethyl-phenyl]methyl]-2-methyl-piperazin-1-yl]methanone]
[1]
  EC50: 3530 nM
[2]
  EC50: 274 nM
[3]
  EC50: 1220 nM

## Cc1cc(CN2CCN(C(=O)OC(C)C)[C@@H](C)C2)c(C)c(Nc2nnc([C@@H]3CNC(=O)C3)o2)c1 [Example 83, isopropyl (2S)-4-[[2,5-dimethyl-3-[[5-[(3S)-5-oxopyrrolidin-3-yl]-1,3,4-oxadiazol-2-yl]amino]phenyl]methyl]-2-methyl-piperazine-1-carboxylate]
[1]
  EC50: 240 nM
[2]
  EC50: 67 nM
[3]
  EC50: 123 nM
